From PMC4114247 (Cancer research, 2009)
Entries after “also recorded” stand apart in the source; their conditions may differ.

Assays:
[1] = tested on: NCr-nu/nu mice bearing PC3 xenografts; assay: Mouse tissue distribution, PC3 xenografts; assay type: in vivo; settings: PSMA deficient PC3 xenografts
[2] = tested on: mice bearing LNCaP xenografts; assay: SPECT/CT imaging, LNCaP xenografts; assay type: in vivo, mouse; settings: 4 hr after injection
[3] = target: LNCaP cells (PSMA positive) (Homo sapiens, UniProt Q04609); assay: Direct binding to LNCaP cells
LNCaP cells (PSMA positive), sequence (Q04609 whole entry): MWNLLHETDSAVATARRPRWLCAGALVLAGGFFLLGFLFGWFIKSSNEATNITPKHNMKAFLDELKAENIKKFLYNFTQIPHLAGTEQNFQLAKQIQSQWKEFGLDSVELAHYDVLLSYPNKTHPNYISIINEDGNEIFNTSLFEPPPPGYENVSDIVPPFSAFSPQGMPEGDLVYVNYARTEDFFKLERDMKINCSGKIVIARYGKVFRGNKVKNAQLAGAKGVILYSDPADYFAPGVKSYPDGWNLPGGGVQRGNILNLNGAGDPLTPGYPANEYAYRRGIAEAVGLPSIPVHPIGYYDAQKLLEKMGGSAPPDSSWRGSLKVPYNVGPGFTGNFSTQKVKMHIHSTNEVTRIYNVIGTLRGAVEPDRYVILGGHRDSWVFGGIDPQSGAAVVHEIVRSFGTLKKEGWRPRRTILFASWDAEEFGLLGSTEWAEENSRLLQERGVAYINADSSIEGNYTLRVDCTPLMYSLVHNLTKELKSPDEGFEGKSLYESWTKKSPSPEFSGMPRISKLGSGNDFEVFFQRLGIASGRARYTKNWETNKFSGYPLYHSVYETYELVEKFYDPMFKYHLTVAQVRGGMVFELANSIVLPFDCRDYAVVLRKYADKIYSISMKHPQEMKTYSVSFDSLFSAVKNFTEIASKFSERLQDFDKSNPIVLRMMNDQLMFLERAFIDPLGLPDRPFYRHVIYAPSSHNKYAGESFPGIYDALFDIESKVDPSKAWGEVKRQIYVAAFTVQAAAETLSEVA

[4] = tested on: PC3 cells (PSMA negative); assay: Direct binding to PC3 cells; settings: 3 nM radioligand, 1 hour; PC3 cells lack PSMA
[5] = Stability in liver microsomes; assay type: in vitro ADME; settings: data not shown
[6] = tested on: NCr nude mice bearing LNCaP xenografts; assay: Mouse tissue distribution, LNCaP xenografts; assay type: in vivo; settings: for Ratio Tumor:Blood / Ratio Tumor:Skeletal Muscle: ratio based on the %ID/g
[7] = tested on: PC3 PIP (PSMA +) tumors; settings: mouse, in vivo
[8] = tested on: LNCaP cells; assay: Internalization into LNCaP cells; assay type: cell-based, human; settings: 100 nM, 0–2 hours
[9] = Stability in blood plasma; assay type: in vitro ADME; settings: data not shown
[10] = co-injected with 50 mg/kg PMPA, 2 hours

O=C(O)CC[C@H](NC(=O)N[C@@H](CCCCNCc1ccc(I)cc1)C(=O)O)C(=O)O [[^123I]MIP-1072, (S)-2-(3-((S)-1-carboxy-5-(4–iodobenzylamino)pentyl)ureido)pentanedioic acid]
Localization to PC3 tumors [1]: not to the PSMA deficient PC3 tumors
SPECT/CT uptake in kidney and LNCaP tumor [2]: high uptake
Binding to LNCaP cells in the presence of non-radiolabeled compound or PMPA ([3]; 3 nM radioligand with 10 µM non-radiolabeled compound or 10 µM PMPA): abolished; also recorded: inhibited
Binding to LNCaP cells ([3]; 3 nM radioligand, 1 hour, room temperature): bound
Binding to PC3 cells [4]: no binding; also recorded: not to the PSMA deficient PC3 cells
Stability in liver microsomes [5]: stable
Tissue distribution: Adipose ([6]; 0.25 hr after injection): 1.45 ± 0.27 %ID/g
Tissue distribution: Blood ([6]; 0.25 hr after injection): 2.59 ± 0.24 %ID/g
Tissue distribution: Bone ([6]; 0.25 hr after injection): 0.69 ± 0.15 %ID/g
Tissue distribution: Brain ([6]; 0.25 hr after injection): 0.08 ± 0.02 %ID/g
Tissue distribution: Heart ([6]; 0.25 hr after injection): 1.25 ± 0.22 %ID/g
Tissue distribution: Kidneys ([6]; 0.25 hr after injection): 90.1 ± 20.2 %ID/g
Tissue distribution: Lg Intestine ([6]; 0.25 hr after injection): 0.41 ± 0.08 %ID/g
Tissue distribution: Liver ([6]; 0.25 hr after injection): 2.26 ± 0.56 %ID/g
Tissue distribution: Lungs ([6]; 0.25 hr after injection): 2.34 ± 0.61 %ID/g
Tissue distribution: Sk.Muscle ([6]; 0.25 hr after injection): 0.8 ± 0.18 %ID/g
Tissue distribution: Sm Intestine ([6]; 0.25 hr after injection): 0.83 ± 0.1 %ID/g
Tissue distribution: Spleen ([6]; 0.25 hr after injection): 4.28 ± 1.67 %ID/g
Tissue distribution: Stomach ([6]; 0.25 hr after injection): 0.69 ± 0.17 %ID/g
Tissue distribution: Testes ([6]; 0.25 hr after injection): 0.91 ± 0.24 %ID/g
Tissue distribution: Tumor (LNCaP xenograft) ([6]; 0.25 hr after injection): 12.9 ± 3.3 %ID/g
Ratio Tumor:Blood ([6]; 0.25 hr): 4.97
Ratio Tumor:Skeletal Muscle ([6]; 0.25 hr): 16.2
Tissue distribution: Adipose ([6]; 1 hr after injection): 0.74 ± 0.28 %ID/g
Tissue distribution: Blood ([6]; 1 hr after injection): 0.47 ± 0.15 %ID/g
Tissue distribution: Bone ([6]; 1 hr after injection): 0.25 ± 0.07 %ID/g
Tissue distribution: Brain ([6]; 1 hr after injection): 0.04 ± 0.01 %ID/g
Tissue distribution: Heart ([6]; 1 hr after injection): 0.31 ± 0.08 %ID/g
Tissue distribution: Kidneys ([6]; 1 hr after injection): 151 ± 26 %ID/g
Tissue distribution: Lg Intestine ([6]; 1 hr after injection): 0.15 ± 0.04 %ID/g
Tissue distribution: Liver ([6]; 1 hr after injection): 2.22 ± 0.43 %ID/g
Tissue distribution: Lungs ([6]; 1 hr after injection): 0.86 ± 0.24 %ID/g
Tissue distribution: Sk.Muscle ([6]; 1 hr after injection): 0.35 ± 0.17 %ID/g
Tissue distribution: Sm Intestine ([6]; 1 hr after injection): 0.41 ± 0.12 %ID/g
Tissue distribution: Spleen ([6]; 1 hr after injection): 1.91 ± 0.85 %ID/g
Tissue distribution: Stomach ([6]; 1 hr after injection): 0.26 ± 0.03 %ID/g
Tissue distribution: Testes ([6]; 1 hr after injection): 0.58 ± 0.19 %ID/g
Tissue distribution: Tumor (LNCaP xenograft) ([6]; 1 hr after injection): 17.4 ± 6.3 %ID/g
Ratio Tumor:Blood ([6]; 1 hr): 37.1
Ratio Tumor:Skeletal Muscle ([6]; 1 hr): 50.0
Tissue distribution: Adipose ([6]; 2 hr after injection): 0.46 ± 0.27 %ID/g
Tissue distribution: Blood ([6]; 2 hr after injection): 0.21 ± 0.04 %ID/g
Tissue distribution: Bone ([6]; 2 hr after injection): 0.17 ± 0.08 %ID/g
Tissue distribution: Brain ([6]; 2 hr after injection): 0.04 ± 0.01 %ID/g
Tissue distribution: Heart ([6]; 2 hr after injection): 0.19 ± 0.07 %ID/g
Tissue distribution: Kidneys ([6]; 2 hr after injection): 159 ± 46 %ID/g
Tissue distribution: Lg Intestine ([6]; 2 hr after injection): 0.28 ± 0.12 %ID/g
Tissue distribution: Liver ([6]; 2 hr after injection): 2.84 ± 0.63 %ID/g
Tissue distribution: Lungs ([6]; 2 hr after injection): 0.4 ± 0.19 %ID/g
Tissue distribution: Sk.Muscle ([6]; 2 hr after injection): 0.2 ± 0.1 %ID/g
Tissue distribution: Sm Intestine ([6]; 2 hr after injection): 0.35 ± 0.1 %ID/g
Tissue distribution: Spleen ([6]; 2 hr after injection): 0.75 ± 0.36 %ID/g
Tissue distribution: Stomach ([6]; 2 hr after injection): 0.21 ± 0.06 %ID/g
Tissue distribution: Testes ([6]; 2 hr after injection): 0.43 ± 0.16 %ID/g
Tissue distribution: Tumor (LNCaP xenograft) ([6]; 2 hr after injection): 14.0 ± 6.9 %ID/g
Ratio Tumor:Blood ([6]; 2 hr): 65.4
Ratio Tumor:Skeletal Muscle ([6]; 2 hr): 70.2
Tissue distribution: Adipose ([6]; 4 hr after injection): 0.12 ± 0.16 %ID/g
Tissue distribution: Bone ([6]; 4 hr after injection): 0.1 ± 0.18 %ID/g
Tissue distribution: Heart ([6]; 4 hr after injection): 0.01 ± 0.02 %ID/g
Tissue distribution: Kidneys ([6]; 4 hr after injection): 35.8 ± 18.7 %ID/g
Tissue distribution: Lg Intestine ([6]; 4 hr after injection): 0.48 ± 0.13 %ID/g
Tissue distribution: Liver ([6]; 4 hr after injection): 2.17 ± 0.67 %ID/g
Tissue distribution: Lungs ([6]; 4 hr after injection): 0.08 ± 0.04 %ID/g
Tissue distribution: Sk.Muscle ([6]; 4 hr after injection): 0.08 ± 0.1 %ID/g
Tissue distribution: Sm Intestine ([6]; 4 hr after injection): 0.24 ± 0.07 %ID/g
Tissue distribution: Spleen ([6]; 4 hr after injection): 0.16 ± 0.12 %ID/g
Tissue distribution: Stomach ([6]; 4 hr after injection): 0.11 ± 0.05 %ID/g
Tissue distribution: Testes ([6]; 4 hr after injection): 0.26 ± 0.17 %ID/g
Tissue distribution: Tumor (LNCaP xenograft) ([6]; 4 hr after injection): 13.7 ± 3.1 %ID/g
Ratio Tumor:Blood ([6]; 4 hr): 220
Ratio Tumor:Skeletal Muscle ([6]; 4 hr): 182
Tissue distribution: Adipose ([6]; 8 hr after injection): 0.04 ± 0.11 %ID/g
Tissue distribution: Blood ([6]; 8 hr after injection): 0.06 ± 0.03 %ID/g
Tissue distribution: Bone ([6]; 8 hr after injection): 0.04 ± 0.04 %ID/g
Tissue distribution: Brain ([6]; 8 hr after injection): 0.02 ± 0.01 %ID/g
Tissue distribution: Heart ([6]; 8 hr after injection): 0.05 ± 0.04 %ID/g
Tissue distribution: Kidneys ([6]; 8 hr after injection): 21.5 ± 25.5 %ID/g
Tissue distribution: Lg Intestine ([6]; 8 hr after injection): 0.72 ± 0.22 %ID/g
Tissue distribution: Liver ([6]; 8 hr after injection): 1.78 ± 0.4 %ID/g
Tissue distribution: Lungs ([6]; 8 hr after injection): 0.06 ± 0.03 %ID/g
Tissue distribution: Sk.Muscle ([6]; 8 hr after injection): 0.02 ± 0.04 %ID/g
Tissue distribution: Sm Intestine ([6]; 8 hr after injection): 0.27 ± 0.06 %ID/g
Tissue distribution: Spleen ([6]; 8 hr after injection): 0.18 ± 0.11 %ID/g
Tissue distribution: Stomach ([6]; 8 hr after injection): 0.21 ± 0.08 %ID/g
Tissue distribution: Testes ([6]; 8 hr after injection): 0.18 ± 0.14 %ID/g
Tissue distribution: Tumor (LNCaP xenograft) ([6]; 8 hr after injection): 9.74 ± 3.48 %ID/g
Ratio Tumor:Blood ([6]; 8 hr): 176
Ratio Tumor:Skeletal Muscle ([6]; 8 hr): 446
Tissue distribution: Adipose ([6]; 24 hr after injection): 0.01 ± 0.11 %ID/g
Tissue distribution: Blood ([6]; 24 hr after injection): 0.01 ± 0 %ID/g
Tissue distribution: Bone ([6]; 24 hr after injection): 0.03 ± 0.05 %ID/g
Tissue distribution: Brain ([6]; 24 hr after injection): 0.02 ± 0.01 %ID/g
Tissue distribution: Heart ([6]; 24 hr after injection): 0.01 ± 0.05 %ID/g
Tissue distribution: Kidneys ([6]; 24 hr after injection): 1.1 ± 0.6 %ID/g
Tissue distribution: Lg Intestine ([6]; 24 hr after injection): 0.37 ± 0.18 %ID/g
Tissue distribution: Liver ([6]; 24 hr after injection): 0.29 ± 0.05 %ID/g
Tissue distribution: Lungs ([6]; 24 hr after injection): 0.05 ± 0.06 %ID/g
Tissue distribution: Sk.Muscle ([6]; 24 hr after injection): 0.08 ± 0.04 %ID/g
Tissue distribution: Sm Intestine ([6]; 24 hr after injection): 0.07 ± 0.02 %ID/g
Tissue distribution: Spleen ([6]; 24 hr after injection): 0.14 ± 0.1 %ID/g
Tissue distribution: Stomach ([6]; 24 hr after injection): 0.11 ± 0.05 %ID/g
Tissue distribution: Testes ([6]; 24 hr after injection): 0.05 ± 0.04 %ID/g
Tissue distribution: Tumor (LNCaP xenograft) ([6]; 24 hr after injection): 5.03 ± 1.35 %ID/g
Ratio Tumor:Blood ([6]; 24 hr): 411
Ratio Tumor:Skeletal Muscle ([6]; 24 hr): 64.5
tumor:blood ratio ([6]; after only a few hours): > 100
tumor:skeletal muscle ratio ([6]; after only a few hours): > 100
Thyroid content (deiodination) ([6]; all time points): < 1 % of the total injected dose
Binding to LNCaP tumor xenografts with co-injected PMPA [6, 10]: blocked
Binding to kidneys with co-injected PMPA [6, 10]: blocked
Blood-brain barrier crossing ([6]; from little uptake in the brain): do not cross the blood-brain barrier
Route of clearance ([6]; mouse, in vivo): primarily through urinary excretion
SPECT/CT detection of PC3 PIP (PSMA +) tumors [7]: detected
Internalization into LNCaP cells ([8]; 4 °C): but not at 4 °C
Internalization into LNCaP cells ([8]; 37 °C): internalized; also recorded: time dependent increase in radioactivity associated with the cellular pellet
Stability in blood plasma [9]: stable
